The numbers were not newly measured in US20100310652A1, “COATED EXTENDED RELEASE PHARMACEUTICAL COMPOSITIONS OF LEVETIRACETAM” (Alembic Limited, priority 2007, published 2010), which cites them from elsewhere.

≈ marks a conversion by molar mass, not a printed value. Bounds are passed on as bounds.

The conditions of series [1]: in 15 minutes, three different pH media.
The conditions of series [2]: highly permeable.

As a reminder, the aqueous solubility is the concentration that dissolves in the medium under given conditions. With `CC[C@@H](C(N)=O)N1CCCC1=O` [Levetiracetam, (−)-(S)-α-ethyl-2-oxo-1-pyrrolidine acetamide], the aqueous solubility is 1040 mg/mL (≈ 6110 mM). Besides, the drug released entry in series [1] is reported as “more than 85%”. In addition, the “permeability (F)” value in series [2] is on record as above 90%.
